Legend:
CDK2 = molecular target: T1, CDK2 (Homo sapiens, UniProt P24941); experiment: CDK protein degradation activity (Western blotting), CDK2; assay type: cell-based; details: MDA-MB-231 cells, 16 hours, Western blot
T1 construct: endogenous in cells; host or cells: MDA-MB-231
Outline: (§1)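 MDA-MB-231 cells were treated with compound at final concentrations of 100 nM, 1 μM and 10 μM, or DMSO vehicle, for 16 h. Lysates were resolved by SDS-PAGE and immunoblotted for CDK2, CDK9 and tubulin, with band intensities quantified densitometrically.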

CDK9 = molecular target: T2, CDK9 (Homo sapiens, UniProt P50750); experiment: CDK protein degradation activity (Western blotting), CDK9; assay type: cell-based; details: MDA-MB-231 cells, 16 hours, Western blot
T2 construct: endogenous in cells; host or cells: MDA-MB-231
T2 sequence (P50750 whole entry): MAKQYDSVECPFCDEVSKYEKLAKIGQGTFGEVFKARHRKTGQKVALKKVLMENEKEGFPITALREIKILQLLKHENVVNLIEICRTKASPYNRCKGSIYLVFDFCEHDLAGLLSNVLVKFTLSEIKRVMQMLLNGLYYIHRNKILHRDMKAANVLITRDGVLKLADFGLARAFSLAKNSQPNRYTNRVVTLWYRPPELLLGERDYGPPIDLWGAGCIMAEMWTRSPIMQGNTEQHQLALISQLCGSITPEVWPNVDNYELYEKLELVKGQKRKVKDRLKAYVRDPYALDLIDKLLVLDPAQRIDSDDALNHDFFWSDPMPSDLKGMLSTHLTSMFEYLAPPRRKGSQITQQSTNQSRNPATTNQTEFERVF
Outline: as §1

| SMILES | Enzyme degradation CDK2 (% remaining) @ 0.1 μM (CDK2) | Enzyme degradation CDK2 (% remaining) @ 1 μM (CDK2) | Enzyme degradation CDK2 (% remaining) @ 10 μM (CDK2) | Enzyme degradation CDK9 (% remaining) @ 0.1 μM (CDK9) | Enzyme degradation CDK9 (% remaining) @ 1 μM (CDK9) | Enzyme degradation CDK9 (% remaining) @ 10 μM (CDK9) |
| --- | --- | --- | --- | --- | --- | --- |
| O=C1CCC(N2C(=O)c3ccc(N4CCC(C(=O)N5CCC(CN6CCN(c7ccc(Nc8ncnc9c8ncn9[C@H]8C[C@@H](NC(=O)c9cccc(C(F)(F)F)n9)C8)cc7)CC6)CC5)CC4)cc3C2=O)C(=O)N1 (stereo partly drawn) [Compound 470, N-((1s,3s)-3-(6-((4-(4-((1-(1-(2-(2,6-dioxopiperidin-3-yl)-1,3-dioxoisoindolin-5-yl)piperidin-4-carbonyl)piperidin-4-yl)methyl)piperazin-1-yl)phenyl)amino)-9H-purin-9-yl)cyclobutyl)-6-(trifluoromethyl)picolinamide] | 30/30/30% | 30/30/30% | 30/30/30% | 0/0/0% | 0/0/0% | 0/0/0% |
| Cc1cccc(C(=O)NC2CC(n3cnc4c(NCc5ccc(N6CCN(CC7CCN(c8cccc9c8C(=O)N([C@H]8CCC(=O)NC8=O)C9=O)CC7)CC6)cc5)ncnc43)C2)n1 (stereo partly drawn) [Compound 150, N-((1s,3s)-3-(6-((4-(4-((1-(2-(2,6-dioxopiperidin-3-yl)-1,3-dioxoisoindolin-4-yl)piperidin-4-yl)methyl)piperazin-1-yl)benzyl)amino)-9H-purin-9-yl)cyclobutyl)-6-methylpicolinamide] | 70% | 80% | 80% | 20% | 10% | 0% |
| Cc1cccc(C(=O)NC2CC(n3cnc4c(NC5CCN(CCOC6CCN(C(=O)CNc7cccc8c7C(=O)N([C@H]7CCC(=O)NC7=O)C8=O)CC6)CC5)ncnc43)C2)n1 (stereo partly drawn) [Compound 46, N-((1s,3s)-3-(6-((1-(2-((1-((2-(2,6-dioxopiperidin-3-yl)-1,3-dioxoisoindolin-4-yl)glycyl)piperidin-4-yl)oxy)ethyl)piperidin-4-yl)amino)-9H-purin-9-yl)cyclobutyl)-6-methylpicolinamide] | 80% | 90% | 100% | 20% | 10% | 30% |
| O=C1CC[C@H](N2C(=O)C=C(Nc3cccc(CC(=O)N4CCC(CC(=O)N5CCN(c6ccc(Nc7ncnc8c7ncn8[C@H]7C[C@@H](NC(=O)Cc8ccccc8)C7)cc6)CC5)CC4)c3)C2=O)C(=O)N1 [Compound 196, N-((1s,3s)-3-(6-((4-(4-(2-(1-(2-(3-((1-(2,6-dioxopiperidin-3-yl)-2,5-dioxo-2,5-dihydro-1H-pyrrol-3-yl)amino)phenyl)acetyl)piperidin-4-yl)acetyl)piperazin-1-yl)phenyl)amino)-9H-purin-9-yl)cyclobutyl)-2-phenylacetamide] | 80% | 100% | 100% | 30% | 40% | 40% |
| Cc1cccc(C(=O)NC2CC(n3cnc4c(NC5CCN(CCCN6CCN(c7cccc8c7C(=O)N([C@H]7CCC(=O)NC7=O)C8=O)CC6)CC5)ncnc43)C2)n1 (stereo partly drawn) [Compound 42, N-((1s,3s)-3-(6-((1-(3-(4-(2-(2,6-dioxopiperidin-3-yl)-1,3-dioxoisoindolin-4-yl)piperazin-1-yl)propyl)piperidin-4-yl)amino)-9H-purin-9-yl)cyclobutyl)-6-methylpicolinamide] | 100% | 60% | 30% | 30% | 0% | 10% |
| Cc1cccc(C(=O)N[C@H]2C[C@@H](n3cnc4c(NC5CCN(CCOC6CCN(C(=O)COc7ccc8c(c7)C(=O)N([C@H]7CCC(=O)NC7=O)C8=O)CC6)CC5)ncnc43)C2)n1 [Compound 43, N-((1s,3s)-3-(6-((1-(2-((1-(2-((2-(2,6-dioxopiperidin-3-yl)-1,3-dioxoisoindolin-5-yl)oxy)acetyl)piperidin-4-yl)oxy)ethyl)piperidin-4-yl)amino)-9H-purin-9-yl)cyclobutyl)-6-methylpicolinamide] | 90% | 60% | 70% | 50% | 0% | 0% |
| O=C(COc1cccc2c1C(=O)N(C1CCC(=O)NC1=O)C2=O)NCC1CCC(CN2CCN(c3ccc(Nc4ncnc5c4ncn5C4CC(NC(=O)Cc5ccccc5)C4)cc3)CC2)CC1 (stereo not drawn) [Compound 219, 2-((2-(2,6-dioxopiperidin-3-yl)-1,3-dioxoisoindolin-4-yl)oxy)-N-(((1r,4r)-4-((4-(4-((9-((1s,3s)-3-(2-phenylacetamido)cyclobutyl)-9H-purin-6-yl)amino)phenyl)piperazin-1-yl)methyl)cyclohexyl)methyl)acetamide] | 80% | 50% | 50% | 100% | 10% | 0% |
| O=C1CCC(N2C(=O)c3ccc(N4CCC(C(=O)N5CCN(CC6CCN(c7ccc(Nc8ncnc9c8ncn9[C@H]8C[C@@H](NC(=O)c9c(Cl)cccc9Cl)C8)cc7)CC6)CC5)CC4)cc3C2=O)C(=O)N1 (stereo partly drawn) [Compound 474, 2,6-dichloro-N-((1s,3s)-3-(6-((4-(4-((4-(1-(2-(2,6-dioxopiperidin-3-yl)-1,3-dioxoisoindolin-5-yl)piperidin-4-carbonyl)piperazin-1-yl)methyl)piperidin-1-yl)phenyl)amino)-9H-purin-9-yl)cyclobutyl)benzamide] | 20% | 30% | 30% | 10% | 0% | 0% |
| O=C1CC[C@H](N2C(=O)c3cc(F)c(N4CCC(CCN5CCN(c6ccc(Nc7ncnc8c7ncn8C7CC(NC(=O)c8c(Cl)cccc8Cl)C7)cc6)CC5)CC4)cc3C2=O)C(=O)N1 (stereo partly drawn) [Compound 406, 2,6-dichloro-N-((1s,3s)-3-(6-((4-(4-(2-(1-(2-(2,6-dioxopiperidin-3-yl)-6-fluoro-1,3-dioxoisoindolin-5-yl)piperidin-4-yl)ethyl)piperazin-1-yl)phenyl)amino)-9H-purin-9-yl)cyclobutyl)benzamide] | 30/30/30% | 30/30/30% | 30/30/30% | 0/0/0% | 0/0/0% | 0/0/0% |

From patent publication US20260125382A1, “COMPOUNDS FOR INHIBITING OR DEGRADING CDK2 AND/OR CDK9 AND MEDICINAL USE THEREOF” (KOREA RESEARCH INSTITUTE OF CHEMICAL TECHNOLOGY, priority 2022, published 2026)
